On to `COc1ccc(Cn2cnc3c(-c4ccco4)nc(I)nc32)cc1`, for which the melting point was in the range of 145 to 148 °C.
Under `COc1cc(C(=O)CCl)ccc1O` stands 102 to 103 °C; under `Cc1noc(NS(=O)(=O)c2ccc(Cl)c(Cl)c2)c1Br`, 144 to 146 °C; under `CCOCc1nc2c(N)nc3cc(-c4cccc(C(N)=O)c4)cnc3c2n1CC(C)(C)O`, more than 250 °C.
The result for `O=C(O)CCCCCNC(=O)c1cc2cc3c(cc2c2cc(OCc4ccccc4)ccc12)OCO3` reads 198 to 200 °C; that for `CN(C)CCNC(=O)N1CCN(c2ccc(C(N)=O)cc2)CC1`, 193 to 195 °C.
Under `CCC(CNC(=O)Cc1c(Cl)cncc1Cl)c1cccc(OC)c1` (stereo not drawn) stands 104 to 105 °C; under `CCCn1c(=O)c(-c2ccccc2)c2n(c1=O)C=CCS2=O` (stereo not drawn), 174 to 175 °C.
On to `CC(C)COC(=O)N1CCC(c2ccc3oc(-c4ccc(S(C)(=O)=O)cc4F)nc3c2)CC1`, for which the melting point was in the range of 169 to 173 °C.
The compound `CCOC(=O)c1cn(C2CC2)c2c(CSCC)c(N3CCOCC3)c(F)cc2c1=O` showed a melting point of 165 to 167 °C.
The result for `N#Cc1cc(/C=C/C(=O)Nc2ccc(Br)cc2)ccc1F` reads 205 to 210 °C.
`Cc1ccc(-c2ccc(S(C)(=O)=O)cc2)n1-c1ccc(-c2ccsc2)cc1`: the melting point was in the range of 187 to 188 °C.
`c1ccc2c(c1)CC1=C2CCCC1` yielded a melting point of 57 °C.
Under `CS(=O)(=O)Nc1cccc(Nc2nc(NCc3ccccc3CO)c3nc[nH]c3n2)c1` stands 145 to 148 °C; under `CON=CC1CCCN(C(=O)Oc2ccccc2)C1` (stereo not drawn), 40 to 41 °C.
The result for `O=C(c1ccc(OCC2CC2)c2oc3ccccc3c12)[NH+]([O-])c1ccncc1` (stereo not drawn) reads 266 to 268 °C; that for `CC1(C)CCC(=C[C@H]2[C@H](C(=O)O)C2(C)C)CC1` (relative stereo), 96 °C; that for `C#CCC(C1=Nc2cnccc2C(=O)C1Nc1ccccc1)N(CCCNC(=O)OCc1ccccc1)C(=O)c1cccc(Cl)c1F` (stereo not drawn), 100 to 102 °C.
Compound `O=C(c1ccc(Br)cc1)N1CC(=O)N2CCc3ccccc3C2C1` (stereo not drawn) registered a melting point of 204 to 206 °C.
The result for `CCCn1nc(CO)cc1OCc1ccc2ccccc2n1` reads 98 to 99 °C.
The result for `COc1ccc(C2=CC(N3CCN(Cc4ccccc4)CC3)=NC23C=CC(=O)C=C3)cc1` reads 190 °C; that for `COc1cc(-n2cccn2)ncn1`, 108 to 109 °C.
The result for `CCCC(=O)c1cc(C(=O)O)c(N)cc1C` reads 184 to 186 °C.
`CC(C)c1c(CO)c(-c2ccc(F)cc2)c2ccccn12` displayed a melting point of 90 to 92 °C.
Under `COc1ccccc1-n1cnc2cc(N)ccc21` stands 48 to 50 °C; under `COc1c(C)c(N2CCN(c3ccc(C)cc3)CC2)c(C)c2c1OC(C)(C)C2`, 150 to 152 °C.
Under `O=[N+]([O-])c1cc(F)c(NS(=O)(=O)c2ccccc2)cc1F` stands 176 °C.
Under `Nc1cc(C(c2c(F)ccc(F)c2F)S(=O)(=O)CCC(F)(F)F)c(Cl)cn1` (stereo not drawn) stands 155 to 159 °C; under `CCn1cc(C(=O)O)c(=O)c2cc(C=NO)sc21`, 315 to 317 °C; under `CCOC(=O)c1cc2c(nc1COc1ccc(C=O)cc1)CCCCC2`, 83 to 84 °C.
With `N#Cc1ccc(-c2ccc(OCCC(=O)NO)cc2)cc1`, the melting point is 114 to 118 °C.
As to `CN(c1ccc(I)cc1)S(C)(=O)=O`, the melting point was 106 to 107 °C.
Under `O=C1C(=Cc2ccc(Cl)cc2)CC23OC2C=CC=C13` (stereo not drawn) stands 162 to 164 °C; under `CCCC[Si](C)(C)CCSCCNC(=O)n1cc(F)c(=O)[nH]c1=O`, 71 to 72 °C; under `O=C(O)C(Cl)(Cl)CCCCCCCCCCC#Cc1ccccc1`, 155 to 157 °C.
The result for `Cc1nc2sccn2c(=O)c1CCN1CCC(=C2c3ccc(F)cc3CCn3ncnc32)CC1` reads 162 °C.
Under `CC1=C(C(=O)OC2CC(C)(C)N(C)C(C)(C)C2)CC(C(=O)OC2CC(C)(C)N(C)C(C)(C)C2)=C(C)N1` stands 232 °C; under `CCCCCCCCC=CCCCCCCCCOCC(CN(C)C)OCCCCCCCCC=CCCCCCCCC` (stereo not drawn), 35 to 38 °C.
Regarding `O=C(O)CC1ON(C(=O)OCc2ccccc2)C(=O)C1N1C(=O)c2ccccc2C1=O` (stereo not drawn), the melting point fell in the range of 160 to 162 °C.
In turn, `O=c1[nH][nH]c(=O)c2c(O)c3ccc(F)cc3nc12` returned a melting point of 228 °C.
In turn, `N#Cc1ccc(C(=O)Nc2ccc(-n3nc(C(F)(F)F)cc3C(F)(F)F)cc2)cc1` gave a melting point of 169 to 171 °C.
Under `CCNc1nc2c(N)nc3ccccc3c2n1CC(C)(C)O` stands 233 to 235 °C; under `COC1=C(c2cccc(C(F)(F)F)c2)C(=O)N(C(C)(C)C)C1`, 129 °C.
`c1ccc(COc2ccc([C@H]3CO3)cc2)cc1`: the melting point was 56 to 61 °C.
In turn, `CC(C)(C)OC(=O)N1CCC[C@H]1Cn1ccc2c3ccn(Cc4ccc(F)cc4)c(=O)c3ccc21` showed a melting point of 144 to 145 °C.
The result for `CCOC(=O)c1c[nH]c2cc(F)c(OC)cc2c1=O` reads 280 °C.
The result for `CNC(=O)c1cnc(SC)nc1Nc1ccc2[nH]ncc2c1` reads 259 to 261 °C; that for `COc1c(OCCCC(=O)O)ccc2c1N=C(C=C(O)c1cccnc1)N1CCN=C21`, 257 to 258 °C.
Under `O=C(C(=O)N1CCC(c2nnnn2-c2ccccc2)CC1)c1c[nH]c2c(-n3ccnn3)ncc(F)c12` stands 257 to 258 °C; under `COC(=O)C(Cc1ccccc1)Oc1ccc2cc(-c3cnc(-c4cn(Cc5ccccc5)c5ccccc45)o3)ccc2c1` (stereo not drawn), 188 to 190 °C.
`Cc1nc2cccc(C)n2c(=O)c1CCN1CCC(c2c[nH]c3ccccc23)CC1` displayed a melting point of 225 °C.
Under `CN(C(=O)c1ccc2nonc2c1)[C@H]1CC[C@@H](C#N)CC1` stands 180 to 181 °C; under `Cc1nc(N2CCC(Cc3ccc(OC(F)(F)F)cc3)C2=O)sc1C(=O)NCc1ccc(F)cc1` (stereo not drawn), 165 to 166 °C; under `CCOCc1nc2c(N)nc3ccccc3c2n1CCOCCNC(=O)Nc1ccccc1`, 183 to 186 °C.
Under `CCCCc1ccccc1C1C(C(=O)OCC)=C(CCC)Nc2[nH]ncc21` (stereo not drawn) stands 175 °C.
`CN(CCc1ccccc1)C(=O)Cn1cc(C=O)c2c(OCc3ccccc3)cccc21` yielded a melting point of 120 to 122 °C.
The result for `COc1ccc(NC(=O)c2ccc(C)cc2O)cc1` reads 185 to 186 °C; that for `CCc1ncnc(O)c1I`, 191 to 192 °C.
Under `O=C(CCCCOc1ccccc1)C(F)(F)F` stands 50 to 51 °C.
The result for `CCC(Oc1ccc(F)cc1)C(=O)OC1CC(O)C=C2C=CC(C)C(CCC3CC(O)CC(=O)O3)C21` (mixture of isomers) reads 149 to 150 °C; that for `CC(C)NC(=O)N1CCC(O[N+](=O)[O-])CC1`, 93 to 95 °C; that for `COc1nc(NC(=O)NS(=O)(=O)c2cscc2C)nc(OC)n1`, 154 to 156 °C.
Compound `CCOC(=O)c1nccn1Cc1ccccc1[N+](=O)[O-]` had a melting point of 107 to 111 °C.

Source of the values: a melting point compilation (Tetko et al.; mined from patent text by program, amines drawn as free bases though some values may be those of a salt).
